Drawing on patent US9597314B2, “Beta-lactamylalkanoic acids for treating premenstrual disorders” (AZEVAN PHARMACEUTICALS, INC., priority 2005, dated 2017), this text covers IC50 and Ki for 34 compounds.

By IC50 is commonly meant the point on the concentration scale where inhibition reaches its midpoint. One may read the Ki as the equilibrium dissociation constant of an inhibitor or competing ligand from its target.

The structures appear in SMILES notation.

This experiment has as its target V1a (Homo sapiens, UniProt P37288). Kind of experiment: Human vasopression V1a receptor binding assay. On the set-up: host or cells: CHO cells (hV1a cell line), whole adherent cells. As to conditions: hV1a cell line (CHO); for IC50: 1 nM 3H-AVP, Table 17, read-out: V1a Binding Affinity (IC50 (nM)); for Ki: Table 18. How it is done: Human vasopression V1a receptor binding assay. A cell line expressing the human V1a receptor in CHO cells (henceforth referred to as the hV1a cell line) was obtained from Dr. Michael Brownstein, NIMH, Bethesda, Md., USA. The hV1a cDNA sequence is described by Thibonnier et al., Journal of Biological Chemistry, 269, 3304-3310 (1994), and the expression method was the same as described by Morel et al. (1992). The hV1a cell line was grown in alpha-MEM with 10% fetal bovine serum and 250 ug/ml G418 (Gibco, Grand Island, N.Y., USA). For competitive binding assay, hV1a cells were plated into 6-well culture plate at 1:10 dilution from a confluency flask, and maintained in culture for at least two days. Culture medium was then removed, cells were washed with 2 ml binding buffer (25 mM Hepes, 0.25% BSA, 1×DMEM, PH=7.0). To each well, 990 μl binding buffer containing 1 nM 3H-AVP was added, and followed by 10 μl series diluted Example compounds dissolved in DMSO. […] 100 nM cold AVP (Sigma) was used to assess non-specific binding. Cells were incubated for 45 minutes at 37° C., assay mixture was removed and each well was washed three times with PBS (pH=7.4). 1 ml 2% SDS was added per well and plates were let sit for 30 minutes. The whole content in a well was transferred to a scintillation vial. Each well was rinsed with 0.5 ml PBS which was then added to the corresponding vial. Scintillation fluid (Ecoscint, National Diagnostics, Atlanta, Ga.) was then added at 3 ml per vial. Samples were counted in a liquid scintillation counter (Beckman LS3801). IC50 values were calculated by Prism Curve fitting software.
All of the alkanedioic esters and amides exemplified in the foregoing examples dissolved in DMSO were tested in this assay. Binding curves were generated according to methods described by Thibonnier et al. (1994). [^3H]-AVP was added to the hV1a cell cultures followed by 10 fold dilutions of each test compound.

Sequence of V1a (P37288 whole entry): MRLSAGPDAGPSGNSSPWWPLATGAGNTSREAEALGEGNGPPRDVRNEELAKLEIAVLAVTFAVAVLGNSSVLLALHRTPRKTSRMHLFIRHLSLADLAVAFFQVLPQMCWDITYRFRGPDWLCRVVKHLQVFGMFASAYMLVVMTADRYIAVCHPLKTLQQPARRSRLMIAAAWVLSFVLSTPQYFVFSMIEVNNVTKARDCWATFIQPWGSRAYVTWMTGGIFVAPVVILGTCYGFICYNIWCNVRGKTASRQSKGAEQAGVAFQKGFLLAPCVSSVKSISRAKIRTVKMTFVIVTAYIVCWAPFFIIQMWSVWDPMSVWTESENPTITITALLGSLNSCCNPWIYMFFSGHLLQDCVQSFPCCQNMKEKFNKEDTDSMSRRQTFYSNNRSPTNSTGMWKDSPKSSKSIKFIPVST

Turning to `Cc1ccc(CNC(=O)[C@H](CCC(=O)N2CCN(C3CCCCC3)CC2)N2C(=O)[C@@H](N3C(=O)OC[C@@H]3c3ccccc3)[C@H]2/C=C/c2ccccc2)o1` [Example 212], the IC50 amounted to 0.95 nM and the Ki is 0.58 nM.
The corresponding values for `O=C(NCc1cccs1)[C@H](CCC(=O)N1CCN(C2CCCCC2)CC1)N1C(=O)[C@@H](N2C(=O)OC[C@@H]2c2ccccc2)[C@H]1/C=C/c1ccccc1` [Example 213] are 0.78 nM and 0.48 nM.
The corresponding values for `O=C(NC1CCc2ccccc21)[C@H](CCC(=O)N1CCN(C2CCCCC2)CC1)N1C(=O)[C@@H](N2C(=O)OC[C@@H]2c2ccccc2)[C@H]1/C=C/c1ccccc1` (stereo partly shown) [Example 216] are 1.83 nM and 1.12 nM.
The corresponding values for `O=C(NC1(c2ccccc2)CCCC1)[C@H](CCC(=O)N1CCN(C2CCCCC2)CC1)N1C(=O)[C@@H](N2C(=O)OC[C@@H]2c2ccccc2)[C@H]1/C=C/c1ccccc1` [Example 217] are 3.17 nM and 1.94 nM.
As for `COc1cc(OC)cc(C(C)(C)NC(=O)[C@H](CCC(=O)N2CCN(C3CCCCC3)CC2)N2C(=O)[C@@H](N3C(=O)OC[C@@H]3c3ccccc3)[C@H]2/C=C/c2ccccc2)c1` [Example 218], the IC50 worked out at 7.7 nM and the Ki turned out to be 4.7 nM.
The corresponding values for `COc1ccc(OC)c(CNC(=O)[C@H](CCC(=O)N2CCN(C3CCCCC3)CC2)N2C(=O)[C@@H](N3C(=O)OC[C@@H]3c3ccccc3)[C@H]2/C=C/c2ccccc2)c1` [Example 219] are 0.63 nM and 0.39 nM.
The like results for `COc1ccccc1CNC(=O)[C@H](CCC(=O)N1CCN(C2CCCCC2)CC1)N1C(=O)[C@@H](N2C(=O)OC[C@@H]2c2ccccc2)[C@H]1/C=C/c1ccccc1` [Example 220] were, in that order, 5.3 nM and 3.26 nM.
`CCCCN1CCN(C(=O)CC[C@@H](C(=O)NCc2cccc(C(F)(F)F)c2)N2C(=O)[C@@H](N3C(=O)OC[C@@H]3c3ccccc3)[C@H]2/C=C/c2ccccc2)CC1` [Example 221AB]: the IC50 was less than 10 nM.
The same measure, in the same setting: as for `CCN1CCN(C(=O)CC[C@@H](C(=O)NCc2cccc(C(F)(F)F)c2)N2C(=O)[C@@H](N3C(=O)OC[C@@H]3c3ccccc3)[C@H]2/C=C/c2ccccc2)CC1` [Example 221AC], the figure is less than 10 nM; as for `O=C(CC[C@@H](C(=O)N[C@@H]1CCCc2ccccc21)N1C(=O)[C@@H](N2C(=O)OC[C@@H]2c2ccccc2)[C@H]1/C=C/c1ccccc1)N[C@@H]1CCN(Cc2ccccc2)C1` [Example 221AD], roughly 50 nM; as for `O=C(CC[C@@H](C(=O)N[C@@H]1CCCc2ccccc21)N1C(=O)[C@@H](N2C(=O)OC[C@@H]2c2ccccc2)[C@H]1/C=C/c1ccccc1)NC1CN2CCC1CC2` (stereo partly shown) [Example 221AE], roughly 50 nM.
The same measure, in the same setting: as for `CCN1CCC[C@H]1CNC(=O)CC[C@@H](C(=O)N[C@@H]1CCCc2ccccc21)N1C(=O)[C@@H](N2C(=O)OC[C@@H]2c2ccccc2)[C@H]1/C=C/c1ccccc1` [Example 221AI], the figure is roughly 50 nM; as for `O=C(CC[C@@H](C(=O)N[C@@H]1CCCc2ccccc21)N1C(=O)[C@@H](N2C(=O)OC[C@@H]2c2ccccc2)[C@H]1/C=C/c1ccccc1)Nc1cnc2ccccc2c1` [Example 221AL], roughly 100 nM.
On to `O=C(NC1(c2cccc(F)c2)CCCC1)[C@H](CCC(=O)N1CCN(C2CCCCC2)CC1)N1C(=O)[C@@H](N2C(=O)OC[C@@H]2c2ccccc2)[C@H]1/C=C/c1ccccc1` [Example 221AM], for which the Ki is 2.7 nM.
For `COc1ccc(C2(NC(=O)[C@H](CCC(=O)N3CCN(C4CCCCC4)CC3)N3C(=O)[C@@H](N4C(=O)OC[C@@H]4c4ccccc4)[C@H]3/C=C/c3ccccc3)CC2)cc1` [Example 221AO], the IC50 was roughly 100 nM.
On to `Cc1ccc(C2(NC(=O)[C@H](CCC(=O)N3CCN(C4CCCCC4)CC3)N3C(=O)[C@@H](N4C(=O)OC[C@@H]4c4ccccc4)[C@H]3/C=C/c3ccccc3)CC2)cc1` [Example 221AP], for which the affinity corresponds to a Ki of 3.8 nM. This lies in the single-digit nanomolar range.
Take `O=C(NC1(c2ccc(Cl)cc2)CCCC1)[C@H](CCC(=O)N1CCN(C2CCCCC2)CC1)N1C(=O)[C@@H](N2C(=O)OC[C@@H]2c2ccccc2)[C@H]1/C=C/c1ccccc1` [Example 221AQ]: the IC50 is roughly 50 nM.
As to `Cc1ccc(C2(NC(=O)[C@H](CCC(=O)N3CCN(C4CCCCC4)CC3)N3C(=O)[C@@H](N4C(=O)OC[C@@H]4c4ccccc4)[C@H]3/C=C/c3ccccc3)CCCC2)cc1` [Example 221AS], the IC50 is roughly 20 nM.
As for `CC(C)(C)OC(=O)N[C@@H]1CCN(C2CCN(C(=O)CC[C@@H](C(=O)NC3(c4ccccc4)CCCC3)N3C(=O)[C@@H](N4C(=O)OC[C@@H]4c4ccccc4)[C@H]3/C=C/c3ccccc3)CC2)C1` [Example 221AX], the IC50 amounted to 83 nM and the inhibition constant (Ki) turned out to be 51 nM.
Consider `O=C(Nc1cccc2c1CCC2)[C@H](CCC(=O)N1CCN(C2CCCCC2)CC1)N1C(=O)[C@@H](N2C(=O)OC[C@@H]2c2ccccc2)[C@H]1/C=C/c1ccccc1` [Example 221AY], for which the half-maximal inhibitory concentration (IC50) is roughly 30 nM.
For `Cc1cccc(CN(C)C(=O)[C@H](CCC(=O)N2CCN(C3CCCCC3)CC2)N2C(=O)[C@@H](N3C(=O)OC[C@@H]3c3ccccc3)[C@H]2/C=C/c2ccccc2)c1` [Example 221A], the IC50 is 2.71 nM and the Ki stood at 1.66 nM.
Turning to `CCN1CCN(C(=O)CC[C@@H](C(=O)N[C@@H]2CCCc3ccccc32)N2C(=O)[C@@H](N3C(=O)OC[C@@H]3c3ccccc3)[C@H]2/C=C/c2ccccc2)CC1` [Example 221BD], the IC50 stood at 2.7 nM and the Ki turned out to be 1.66 nM.
Take `O=C(N[C@@H]1CCCc2ccccc21)[C@H](CCC(=O)N1CCN(CCCO)CC1)N1C(=O)[C@@H](N2C(=O)OC[C@@H]2c2ccccc2)[C@H]1/C=C/c1ccccc1` [Example 221BI]: the IC50 was 56 nM and the Ki turned out to be 35 nM.
Turning to `CN(Cc1cccc(Cl)c1Cl)C(=O)[C@H](CCC(=O)N1CCN(C2CCCCC2)CC1)N1C(=O)[C@@H](N2C(=O)OC[C@@H]2c2ccccc2)[C@H]1/C=C/c1ccccc1` [Example 221B], the IC50 was determined as 0.59 nM and the Ki was found to be 0.36 nM.
The like results for `CN(Cc1cccc(Cl)c1)C(=O)[C@H](CCC(=O)N1CCN(C2CCCCC2)CC1)N1C(=O)[C@@H](N2C(=O)OC[C@@H]2c2ccccc2)[C@H]1/C=C/c1ccccc1` [Example 221C] were, in that order, 3 nM and 1.84 nM.
Consider `CN(Cc1cccc(Br)c1)C(=O)[C@H](CCC(=O)N1CCN(C2CCCCC2)CC1)N1C(=O)[C@@H](N2C(=O)OC[C@@H]2c2ccccc2)[C@H]1/C=C/c1ccccc1` [Example 221D], for which the IC50 is 2.41 nM and the inhibition constant Ki came to 1.48 nM.
On to `CN(Cc1cc(Cl)cc(Cl)c1)C(=O)[C@H](CCC(=O)N1CCN(C2CCCCC2)CC1)N1C(=O)[C@@H](N2C(=O)OC[C@@H]2c2ccccc2)[C@H]1/C=C/c1ccccc1` [Example 221E], for which the 50% inhibitory concentration (IC50) was found to be 20.2 nM and the Ki was 12.4 nM.
The like results for `O=C(NC1(c2ccccc2)CCCCC1)[C@H](CCC(=O)N1CCN(C2CCCCC2)CC1)N1C(=O)[C@@H](N2C(=O)OC[C@@H]2c2ccccc2)[C@H]1/C=C/c1ccccc1` [Example 221G] were, in that order, 1.5 nM and 0.93 nM.
The like results for `O=C(NC1(c2ccccc2F)CCCC1)[C@H](CCC(=O)N1CCN(C2CCCCC2)CC1)N1C(=O)[C@@H](N2C(=O)OC[C@@H]2c2ccccc2)[C@H]1/C=C/c1ccccc1` [Example 221H] were, in that order, 4 nM and 2.5 nM.
For `O=C(NC1(c2ccc(F)cc2)CCCC1)[C@H](CCC(=O)N1CCN(C2CCCCC2)CC1)N1C(=O)[C@@H](N2C(=O)OC[C@@H]2c2ccccc2)[C@H]1/C=C/c1ccccc1` [Example 221I], the half-maximal inhibitory concentration (IC50) amounted to 12 nM and the Ki stood at 7.4 nM.
As to `O=C(NC(c1ccccc1)c1ccccc1)[C@H](CCC(=O)N1CCN(C2CCCCC2)CC1)N1C(=O)[C@@H](N2C(=O)OC[C@@H]2c2ccccc2)[C@H]1/C=C/c1ccccc1` [Example 221K], the IC50 is roughly 5 nM.
Take `O=C(CC[C@@H](C(=O)N1CCc2ccccc2C1)N1C(=O)[C@@H](N2C(=O)OC[C@@H]2c2ccccc2)[C@H]1/C=C/c1ccccc1)N1CCN(C2CCCCC2)CC1` [Example 221O]: the IC50 amounted to 8.4 nM and affinity was put at a Ki of 5.1 nM.
The corresponding values for `O=C(NC1Cc2ccccc2C1)[C@H](CCC(=O)N1CCN(C2CCCCC2)CC1)N1C(=O)[C@@H](N2C(=O)OC[C@@H]2c2ccccc2)[C@H]1/C=C/c1ccccc1` [Example 221P] are 1.7 nM and 1.1 nM.
Regarding `O=C(NC(CCO)c1ccccc1)[C@H](CCC(=O)N1CCN(C2CCCCC2)CC1)N1C(=O)[C@@H](N2C(=O)OC[C@@H]2c2ccccc2)[C@H]1/C=C/c1ccccc1` (stereo partly shown) [Example 221Q], the IC50 amounted to 18.1 nM and the Ki stood at 11.1 nM.
